In US20060069132A1, “Azolecarboxamide herbicides” (priority 2004, published 2006):

Experiments:
[1] = system: lambsquarters; assay: Test B pre-/postemergence herbicide test; assay type: in vivo, Chenopodium album; conditions: for Lambsquarters plant response rating: scale 0 (no effect) to 100 (complete control)
Procedure, shortened: (§1)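 Test chemicals in a non-phytotoxic solvent mixture with surfactant were applied preemergence to seeded species and postemergence to plants 2-18 cm tall (1- to 4-leaf stage); rice and barnyardgrass were also tested in a flooded paddy at the 2-leaf stage. Visual rating versus controls after 13-15 days in greenhouse, scale 0 (no effect) to 100 (complete control).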

[2] = system: wild oat; assay: Test B postemergence herbicide test; assay type: in vivo, Avena fatua; conditions: scale 0 (no effect) to 100 (complete control)
Procedure, shortened: (§2)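 Postemergence plants were sprayed with formulated test chemicals at 2 to 18 cm height (1- to 4-leaf stage); paddy species were grown to the 2-leaf stage. After 13 to 15 days in a greenhouse, injury was rated visually against untreated controls on a 0–100 scale (0 = no effect, 100 = complete control).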

[3] = system: small flower umbrella sedge; assay: Test B flooded paddy test; assay type: in vivo, Cyperus difformis; conditions: 1000 g ai/ha, scale 0 to 100 (0 no effect, 100 complete control)
Procedure, shortened: (§3)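 Greenhouse test; postemergence application to plants at 1–4 leaves (2–18 cm); paddy species at 2 leaves; evaluated visually vs controls at 13–15 days; scale 0–100 (100 = complete control).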

[4] = system: large crabgrass; assay: Test B pre-/postemergence herbicide test; assay type: in vivo, Digitaria sanguinalis
Procedure, shortened: as §1

[5] = system: barnyardgrass; assay: Test B flooded paddy test; assay type: in vivo, Echinochloa crus-galli; conditions: 1000 g ai/ha, scale 0 to 100 (0 no effect, 100 complete control)
Procedure, shortened: as §3

[6] = system: barnyardgrass; assay: Test B pre-/postemergence herbicide test; assay type: in vivo, Echinochloa crus-galli
Procedure, shortened: (§4)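 Greenhouse pot assay with simultaneous preemergence (treated seed) and postemergence (2–18 cm seedlings) applications of surfactant-containing, non-phytotoxic solvent formulations. Response scored visually 13–15 days later on a 0–100 scale, 100 meaning complete control.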

[7] = system: ducksalad; assay: Test B flooded paddy test; assay type: in vivo, Heteranthera limosa; conditions: 1000 g ai/ha, scale 0 to 100 (0 no effect, 100 complete control)
Procedure, shortened: as §3

[8] = system: corn; assay: Test B pre-/postemergence herbicide test; assay type: in vivo, Zea mays
Procedure, shortened: as §1

[9] = system: blackgrass; assay: Test B postemergence herbicide test; assay type: in vivo, Alopecurus myosuroides
Procedure, shortened: as §3

[10] = system: rice; assay: Test B flooded paddy test; assay type: in vivo, Oryza sativa; conditions: 1000 g ai/ha, scale 0 to 100 (0 no effect, 100 complete control)
Procedure, shortened: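 Paddy species grown to the 2-leaf stage under flooding; blackgrass sprayed postemergence at 2–18 cm (1- to 4-leaf stage). Plants kept in a greenhouse for 13 to 15 days, then visually rated against controls on 0 (no effect) to 100 (complete control).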

[11] = system: velvetleaf; assay: Test B pre-/postemergence herbicide test; assay type: in vivo, Abutilon theophrasti; conditions: for Velvetleaf plant response rating: scale 0 (no effect) to 100 (complete control)
Procedure, shortened: as §1

[12] = system: morningglory; assay: Test B pre-/postemergence herbicide test; assay type: in vivo, Ipomoea coccinea; conditions: for Morningglory plant response rating: scale 0 (no effect) to 100 (complete control)
Procedure, shortened: as §4

[13] = system: cocklebur; assay: Test B pre-/postemergence herbicide test; assay type: in vivo, Xanthium strumarium
Procedure, shortened: as §4

[14] = system: wheat; assay: Test B postemergence herbicide test; assay type: in vivo, Triticum aestivum; set-up: key to Wheat plant response rating: 0 = no effect, 100 = complete control
Procedure, shortened: as §2

[15] = system: Surinam grass; assay: Test B pre-/postemergence herbicide test; assay type: in vivo, Urochloa decumbens; conditions: for Surinam Grass plant response rating: scale 0 (no effect) to 100 (complete control)
Procedure, shortened: as §1

[16] = 500 g ai/ha, visual rating 0-100, 0 no effect, 100 complete control, preemergence
[17] = postemergence, 125 g ai/ha, visual rating
[18] = postemergence, 500 g ai/ha, visual rating
[19] = preemergence, 125 g ai/ha, 0 to 100 scale, 0 is no effect, 100 is complete control
[20] = 500 g ai/ha; visual rating 0-100, 0 no effect, 100 complete control; preemergence
[21] = postemergence, 125 g ai/ha; visual rating, scale 0 (no effect) to 100 (complete control)
[22] = postemergence, 500 g ai/ha; visual rating, scale 0 (no effect) to 100 (complete control)
[23] = preemergence, 125 g ai/ha; 0 to 100 scale, 0 is no effect, 100 is complete control
[24] = 125 g ai/ha, 0 is no effect, 100 is complete control, preemergence
[25] = 125 g ai/ha, visual rating, postemergence
[26] = 125 g ai/ha; 0 is no effect, 100 is complete control; preemergence
[27] = 125 g ai/ha; visual rating, scale 0 (no effect) to 100 (complete control); postemergence
[28] = postemergence, 500 g ai/ha; scale 0 to 100, 0 is no effect, 100 is complete control

CCn1nc(C(C)(C)C)cc1C(=O)Nc1cc(C(=O)NCC2CC2)ccn1 [Compound 155]
Plant response rating, Lambsquarters [1, 16]: 100 | Lambsquarters plant response rating [1, 17]: 70 | Lambsquarters plant response rating [1, 18]: 90 | Plant response rating, Lambsquarters [1, 19]: 100 | Oat, Wild plant response rating [2, 17]: 40 | Oat, Wild plant response rating [2, 18]: 50 | Sedge, Umbrella plant response rating ([3]; visual rating, 13 to 15 days): 90 | Plant response rating, Crabgrass, Large [4, 20]: 100 | Crabgrass, Large plant response rating [4, 21]: 20 | Crabgrass, Large plant response rating [4, 22]: 40 | Plant response rating, Crabgrass, Large [4, 23]: 60 | Barnyardgrass plant response rating ([5]; visual rating, 13 to 15 days): 70 | Plant response rating, Barnyardgrass [6, 20]: 90 | Barnyardgrass plant response rating [6, 21]: 10 | Barnyardgrass plant response rating [6, 22]: 20 | Plant response rating, Barnyardgrass [6, 23]: 60 | Ducksalad plant response rating ([7]; visual rating, 13 to 15 days): 100 | Plant response rating, Corn [8, 20]: 30 | Corn plant response rating [8, 21]: 10 | Corn plant response rating [8, 22]: 20 | Plant response rating, Corn [8, 23]: 0 | Blackgrass plant response rating [9, 21]: 40 | Blackgrass plant response rating [9, 22]: 50 | Rice plant response rating ([10]; visual rating, 13 to 15 days): 20 | Plant response rating, Velvetleaf [11, 16]: 70 | Velvetleaf plant response rating [11, 17]: 20 | Velvetleaf plant response rating [11, 18]: 70 | Plant response rating, Velvetleaf [11, 19]: 20 | Plant response rating, Morningglory [12, 16]: 40 | Morningglory plant response rating [12, 17]: 30 | Morningglory plant response rating [12, 18]: 60 | Plant response rating, Morningglory [12, 19]: 20 | Plant response rating, Cocklebur [13, 20]: 30 | Cocklebur plant response rating [13, 21]: 60 | Cocklebur plant response rating [13, 22]: 80 | Plant response rating, Cocklebur [13, 23]: 0 | Wheat plant response rating ([14]; postemergence, 500 g ai/ha, visual rating, scale 0 (no effect) to 100 (complete control)): 20 | Plant response rating, Surinam Grass [15, 16]: 50 | Surinam Grass plant response rating [15, 17]: 20 | Surinam Grass plant response rating [15, 18]: 30 | Plant response rating, Surinam Grass [15, 19]: 10

CCc1nn(C(C)C)nc1C(=O)Nc1cccc(C(=O)N(C)CC)c1 [Compound 386]
Plant response rating (0 to 100 scale), Lambsquarters [1, 24]: 100 | Lambsquarters plant response rating [1, 25]: 30 | Lambsquarters plant response rating ([1]; Postemergence, 500 g ai/ha): 60 | Oat, Wild plant response rating [2, 25]: 0 | Oat, Wild plant response rating ([2]; Postemergence, 500 g ai/ha): 0 | Sedge, Umbrella plant response rating [3]: 80 | Plant response rating (0 to 100 scale), Crabgrass, Large [4, 26]: 100 | Crabgrass, Large plant response rating [4, 27]: 10 | Crabgrass, Large plant response rating [4, 28]: 20 | Barnyardgrass plant response rating [5]: 90 | Plant response rating (0 to 100 scale), Barnyardgrass [6, 26]: 90 | Barnyardgrass plant response rating [6, 27]: 0 | Barnyardgrass plant response rating [6, 28]: 10 | Ducksalad plant response rating [7]: 90 | Plant response rating (0 to 100 scale), Corn [8, 26]: 40 | Corn plant response rating [8, 27]: 0 | Corn plant response rating [8, 28]: 10 | Blackgrass plant response rating [9, 27]: 0 | Blackgrass plant response rating [9, 28]: 40 | Rice plant response rating [10]: 80 | Plant response rating (0 to 100 scale), Velvetleaf [11, 24]: 60 | Velvetleaf plant response rating [11, 25]: 40 | Velvetleaf plant response rating ([11]; Postemergence, 500 g ai/ha): 50 | Plant response rating (0 to 100 scale), Morningglory [12, 24]: 50 | Morningglory plant response rating [12, 25]: 20 | Morningglory plant response rating ([12]; Postemergence, 500 g ai/ha): 20 | Plant response rating (0 to 100 scale), Cocklebur [13, 26]: 20 | Cocklebur plant response rating [13, 27]: 40 | Cocklebur plant response rating [13, 28]: 50 | Wheat plant response rating ([14]; 125 g ai/ha, visual rating, scale 0 (no effect) to 100 (complete control), postemergence): 0 | Wheat plant response rating ([14]; 500 g ai/ha, scale 0 to 100, 0 no effect, 100 complete control, preemergence): 100 | Wheat plant response rating ([14]; Postemergence, 500 g ai/ha, scale 0 (no effect) to 100 (complete control)): 0 | Plant response rating (0 to 100 scale), Surinam Grass [15, 24]: 80 | Surinam Grass plant response rating [15, 25]: 10 | Surinam Grass plant response rating ([15]; Postemergence, 500 g ai/ha): 10
